Results from patent US9422244B2, “Synthesis of substituted pyrazoline carboxamidine derivatives” (Abbvie Bahamas Ltd., priority 2010, dated 2016).

| melting point | Compound |
| --- | --- |
| 149 to 150 °C | CC1(C)C=NN(C(N)=S)C1 [compound 31, 4,4-Dimethyl-4,5-dihydro-pyrazole-1-carbothioic acid amide] |
| 164 to 165 °C | CC1(C)C=NN(/C(N)=N/S(=O)(=O)c2ccc(Cl)s2)C1 [compound 33, 5-Chloro-thiophene-2-sulfonic acid amino-(4,4-dimethyl-4,5-dihydro-pyrazol-1-yl)-methylene-amide] |
| 66 to 67 °C | CCNC(=S)N1CC(C)(C)C=N1 [compound 5, 4,4-Dimethyl-4,5-dihydro-pyrazole-1-carbothioic acid ethylamide] |
| 109 to 110 °C | NS(=O)(=O)c1ccc(Cl)s1 [compound 30, 5-Chloro-thiophene-2-sulfonic acid amide] |
| 58 to 59 °C | O=C(Nc1ccccc1Br)C(F)(F)F [compound 12, N-(2-Bromo-phenyl)-2,2,2-trifluoro-acetamide] |
| 87 to 88 °C | CCN/C(=N\S(=O)(=O)c1ccccc1Cl)N1CCC(CC)=N1 |
| 141 to 142 °C | CCN/C(=N\S(=O)(=O)c1ccc(N)cc1)N1CC2(C=N1)CCCC2 [compound 4, 4-Amino-N-[(2,3-diaza-spiro[4.4]non-3-en-2-yl)-ethylamino-methylene]-benzenesulfonamide] |
| 184 to 185 °C | NS(=O)(=O)c1c(Cl)nc2sccn12 [compound 21, 6-Chloro-imidazo[2,1-b]thiazole-5-sulfonic acid amide] |
| 120 to 121 °C | CCNC(=S)N1CC2(C=N1)CCCC2 [compound 1, 2,3-Diazaspiro[4.4]non-3-ene-2-carbothioic acid ethylamide] |
| 171 to 172 °C | NS(=O)(=O)c1ccc(NC(=O)C(F)(F)F)c(Br)c1 [compound 14, N-(2-Bromo-4-sulfamoyl-phenyl)-2,2,2-trifluoro-acetamide] |
| 60 to 61 °C | O=C(Nc1ccc(S(=O)(=O)Cl)cc1Br)C(F)(F)F [compound 13, 3-Bromo-4-(2,2,2-trifluoro-acetylamino)-benzenesulfonyl chloride] |
| 91 to 92 °C | CCN/C(=N\S(=O)(=O)/C=C/c1ccccc1)N1CC(CC)C=N1 (stereo not drawn) [compound 29, Trans-2-phenyl-ethenesulfonic acid ethylamino-(4-ethyl-4,5-dihydro-pyrazol-1-yl)-methylene-amide] |
